≈ marks a conversion by molar mass, not a printed value.

What all share (experiment): MTT method in vitro, inhibition of cell growth
What all share (type): cell-based
Background: Tetrazolium dyes change colour on reduction, which living cells bring about.

Experiment [1] concerns BGC-823 (human gastric cancer cells). The conditions noted are these: BGC-823, MTT, 48 h. From the text: (§1) (1) Cell lines: PANC-1 (human pancreatic cancer cells), SKOV3 (human ovarian cancer cells), MCF-7 (human breast cancer cells), SMMC-7721 (human liver cancer cells), A549 (human lung cancer cells), BGC-823 (human gastric cancer cells), COLO205 (human colonic cancer cells), storaged and passaged maintainably in Research and Evaluation Center for Pharmacology, Shanghai Institute of Pharmaceutical Industry;
(§2) The inhibition effects of the compound of formula (I) on the above-mentioned cell lines were detected by using MTT method. The specific procedures were as follows:
(§3) (1) Cell culture: (a) Storaged cells were taken out from the liquid nitrogen, thawed quickly in a 37 water bath, then aseptically transferred into 6 ml of cellular medium in a 10 ml centrifugal tube, centrifuged at 1000 rpm for 5 min. The supernatant was discarded, then the precipitated cells were re-suspended in 5-6 ml cellular media by pipetting and transferred into a flask in a 37 incubator for cell culture; (b) Next day, the flask was taken out from the incubator and the used medium was discarded, then the cells were incubated in 5-6 ml fresh medium in the 37 incubator; (c) On the third day, the flask was taken out from the incubator and the used medium was discarded, then 2-3 ml of PBS (pH7.4) was added into the flask with rocking for cleaning it and the used PBS was discarded. Such a cellular cleaning step was repeated once again. 3-5 drops of 0.25% trypsin solution were added into the flask with sloshing, thus well-distributed in it. The flask was capped and placed in a 37 incubator for about 3 min, and the separation of cells from the flask wall was observed under the microscope. 2 ml of cellular medium was added and cells were separated completely from the flask wall by pipetting, then the cell suspension was transferred into 2 separate clean flasks, each containing 5-6 ml medium. The cell suspension was well-distributed by pipetting, then the flask was placed in a 37 incubator. (d) Step (c) was repeated every other day. […]
(§4) (4) Cells in a logarithmic growth stage were trypsinized and washed, then re-suspended in the medium containing 10% calf serum. The number of living cells was counted in Trypan blue dye exclusion method and cell suspensions were adjusted into a density of 2×10^5 cell/ml. […]
(§5) (7) 100 μl of crystal dissolving solution was added into each well and cells were incubated continuously in the incubator overnight, so as to dissolve the resulted formazan crystals sufficiently. Then, the absorbance value was measured at 570 nm for each well.
(§6) (8) Based on absorbance values, inhibition rates on the cell growth were calculated for sample groups of various concentrations. […]
(§7) (1−mean absorbance of experimental wells/mean absorbance of control wells)×100%

Experiment [2] concerns COLO205 (human colonic cancer cells). The conditions noted are these: COLO 205, 48 h.
Description: as §1, §2, §3, §4, §5, §6, §7

For experiment [3], the system named is PANC-1 (human pancreatic cancer cells). The conditions noted are these: PANC-1, MTT, 48 h.
Description: as §1, §2, §3, §4, §5, §6, §7

The test system of experiment [4] is SMMC-7721 (human liver cancer cells). The conditions noted are these: SMMC-7721, MTT, 48 h.
Description: as §1, §2, §3, §4, §5, §6, §7

As to `CC(=O)O[C@H]1C(=O)[C@@]2(C)[C@H]([C@H](OC(=O)c3ccccc3)[C@]3(O)C[C@H](OC(=O)[C@H](O)[C@@H](NC(=O)c4ccccc4)c4ccccc4)C(C)=C1C3(C)C)[C@]1(OC(C)=O)CO[C@@H]1C[C@@H]2O` [Taxol, reference compound], the IC50 (commonly the point on the concentration scale where inhibition reaches its midpoint) in experiment [1] was 0.24 µg/mL (≈ 0.281 µM); in experiment [2] it was 0.75 µg/mL (≈ 0.878 µM); in experiment [3], 0.44 µg/mL (≈ 0.515 µM); in experiment [4] it was 0.12 µg/mL (≈ 0.141 µM).

The record behind these values is patent publication US20160015670A1, “COMPOUND, 1-PALMITIN-2-LINOLEIN-3-OLEIN, AND PHARMACEUTICAL PREPARATION AND USE THEREOF” (priority 2014, published 2016).
